Measurements published in a compilation of properties of binary mixtures (doi:10.1007/s10953-010-9562-5).

Assay: xn = mol fraction of the nth substance listed
Conditions: 101 kPa

CCCC[N+]1(C)CCCC1.O=S(=O)([N-]S(=O)(=O)C(F)(F)F)C(F)(F)F + CC1COC(=O)O1
Conditions	electrical conductivity [S/m]	viscosity [mPa·s]
253.15 K, x2 = 0	0.017	–
253.15 K, x2 = 0.05	0.021	–
253.15 K, x2 = 0.16	0.032	–
253.15 K, x2 = 0.26	0.049	–
253.15 K, x2 = 0.32	0.06	–
253.15 K, x2 = 0.37	0.074	–
253.15 K, x2 = 0.42	0.09	–
253.15 K, x2 = 0.53	0.13	–
253.15 K, x2 = 0.58	0.155	–
253.15 K, x2 = 0.68	0.213	–
253.15 K, x2 = 0.74	0.243	–
253.15 K, x2 = 0.84	0.287	–
253.15 K, x2 = 0.95	0.232	–
253.15 K, x2 = 0.97	0.165	–
258.15 K, x2 = 0	0.031	–
258.15 K, x2 = 0.05	0.037	–
258.15 K, x2 = 0.11	0.043	–
258.15 K, x2 = 0.21	0.061	–
258.15 K, x2 = 0.32	0.086	–
258.15 K, x2 = 0.37	0.102	–
258.15 K, x2 = 0.42	0.121	–
258.15 K, x2 = 0.47	0.144	–
258.15 K, x2 = 0.53	0.169	–
258.15 K, x2 = 0.63	0.231	–
258.15 K, x2 = 0.68	0.266	–
258.15 K, x2 = 0.74	0.302	–
258.15 K, x2 = 0.79	0.333	–
258.15 K, x2 = 0.84	0.353	–
258.15 K, x2 = 0.89	0.344	–
258.15 K, x2 = 0.95	0.274	–
258.15 K, x2 = 0.97	0.182	–
263.15 K, x2 = 0	0.045	–
263.15 K, x2 = 0.11	0.062	–
263.15 K, x2 = 0.16	0.073	–
263.15 K, x2 = 0.21	0.086	–
263.15 K, x2 = 0.26	0.102	–
263.15 K, x2 = 0.32	0.12	–
263.15 K, x2 = 0.42	0.165	–
263.15 K, x2 = 0.47	0.193	–
263.15 K, x2 = 0.58	0.261	–
263.15 K, x2 = 0.63	0.3	–
263.15 K, x2 = 0.68	0.341	–
263.15 K, x2 = 0.74	0.381	–
263.15 K, x2 = 0.79	0.415	–
263.15 K, x2 = 0.84	0.432	–
263.15 K, x2 = 0.95	0.323	–
263.15 K, x2 = 0.97	0.232	–
268.15 K, x2 = 0	0.072	–
268.15 K, x2 = 0.05	0.082	–
268.15 K, x2 = 0.11	0.094	–
268.15 K, x2 = 0.16	0.108	–
268.15 K, x2 = 0.21	0.124	–
268.15 K, x2 = 0.26	0.143	–
268.15 K, x2 = 0.32	0.165	–
268.15 K, x2 = 0.37	0.19	–
268.15 K, x2 = 0.42	0.218	–
268.15 K, x2 = 0.47	0.251	–
268.15 K, x2 = 0.53	0.288	–
268.15 K, x2 = 0.58	0.328	–
268.15 K, x2 = 0.63	0.372	–
268.15 K, x2 = 0.74	0.461	–
268.15 K, x2 = 0.79	0.496	–
268.15 K, x2 = 0.84	0.512	–
268.15 K, x2 = 0.89	0.487	–
268.15 K, x2 = 0.95	0.377	–
268.15 K, x2 = 0.97	0.296	–
273.15 K, x2 = 0.05	0.122	–
273.15 K, x2 = 0.11	0.137	–
273.15 K, x2 = 0.16	0.154	–
273.15 K, x2 = 0.21	0.173	–
273.15 K, x2 = 0.32	0.22	–
273.15 K, x2 = 0.37	0.249	–
273.15 K, x2 = 0.47	0.316	–
273.15 K, x2 = 0.53	0.356	–
273.15 K, x2 = 0.58	0.399	–
273.15 K, x2 = 0.63	0.444	–
273.15 K, x2 = 0.68	0.491	–
273.15 K, x2 = 0.79	0.57	–
273.15 K, x2 = 0.84	0.585	–
273.15 K, x2 = 0.89	0.559	–
273.15 K, x2 = 0.95	0.445	–
273.15 K, x2 = 0.97	0.375	–
278.15 K, x2 = 0	0.152	–
278.15 K, x2 = 0.05	0.168	–
278.15 K, x2 = 0.11	0.185	–
278.15 K, x2 = 0.16	0.205	–
278.15 K, x2 = 0.21	0.228	–
278.15 K, x2 = 0.32	0.281	–
278.15 K, x2 = 0.37	0.312	–
278.15 K, x2 = 0.42	0.347	–
278.15 K, x2 = 0.47	0.385	–
278.15 K, x2 = 0.53	0.426	–
278.15 K, x2 = 0.58	0.47	–
278.15 K, x2 = 0.63	0.516	–
278.15 K, x2 = 0.68	0.562	–
278.15 K, x2 = 0.74	0.604	–
278.15 K, x2 = 0.79	0.637	–
278.15 K, x2 = 0.84	0.649	–
278.15 K, x2 = 0.89	0.621	–
278.15 K, x2 = 0.97	0.414	–
283.15 K, x2 = 0	0.193	–
283.15 K, x2 = 0.11	0.234	–
283.15 K, x2 = 0.21	0.284	–
283.15 K, x2 = 0.26	0.313	–
283.15 K, x2 = 0.32	0.346	–
283.15 K, x2 = 0.42	0.421	–
283.15 K, x2 = 0.47	0.464	–
283.15 K, x2 = 0.53	0.51	–
283.15 K, x2 = 0.63	0.606	–
283.15 K, x2 = 0.74	0.697	–
283.15 K, x2 = 0.79	0.728	–
283.15 K, x2 = 0.84	0.735	–
288.15 K, x2 = 0	0.249	–
288.15 K, x2 = 0.05	0.271	–
288.15 K, x2 = 0.11	0.295	–
288.15 K, x2 = 0.16	0.322	–
288.15 K, x2 = 0.21	0.351	–
288.15 K, x2 = 0.32	0.42	–
288.15 K, x2 = 0.37	0.459	–
288.15 K, x2 = 0.42	0.501	–
288.15 K, x2 = 0.53	0.595	–
288.15 K, x2 = 0.58	0.645	–
288.15 K, x2 = 0.63	0.696	–
288.15 K, x2 = 0.68	0.745	–
288.15 K, x2 = 0.84	0.821	–
288.15 K, x2 = 0.89	0.776	–
288.15 K, x2 = 0.95	0.63	–
288.15 K, x2 = 0.97	0.528	–
293.15 K, x2 = 0.05	0.328	70.58
293.15 K, x2 = 0.11	0.357	59.09
293.15 K, x2 = 0.16	0.388	50.53
293.15 K, x2 = 0.21	0.421	44.05
293.15 K, x2 = 0.26	0.458	38.97
293.15 K, x2 = 0.32	0.498	34.77
293.15 K, x2 = 0.37	0.542	31.1
293.15 K, x2 = 0.42	0.588	27.69
293.15 K, x2 = 0.47	0.638	24.42
293.15 K, x2 = 0.58	0.742	18.11
293.15 K, x2 = 0.63	0.794	15.13
293.15 K, x2 = 0.68	0.843	12.36
293.15 K, x2 = 0.74	0.884	9.88
293.15 K, x2 = 0.84	0.908	6.05
293.15 K, x2 = 0.89	0.853	4.71
293.15 K, x2 = 0.95	0.692	3.65
293.15 K, x2 = 0.97	0.582	–
298.15 K, x2 = 0	0.364	68.16
298.15 K, x2 = 0.05	0.394	56.05
298.15 K, x2 = 0.11	0.425	47.09
298.15 K, x2 = 0.16	0.46	40.44
298.15 K, x2 = 0.21	0.497	35.42
298.15 K, x2 = 0.26	0.538	31.51
298.15 K, x2 = 0.47	0.73	20.25
298.15 K, x2 = 0.53	0.784	17.72
298.15 K, x2 = 0.58	0.839	15.23
298.15 K, x2 = 0.68	0.942	10.56
298.15 K, x2 = 0.74	0.982	8.51
298.15 K, x2 = 0.79	1	6.74
298.15 K, x2 = 0.84	0.997	5.29
298.15 K, x2 = 0.89	0.934	4.14
298.15 K, x2 = 0.95	0.757	3.26
298.15 K, x2 = 0.97	0.628	–
303.15 K, x2 = 0	0.426	54.05
303.15 K, x2 = 0.05	0.458	44.95
303.15 K, x2 = 0.11	0.494	38.15
303.15 K, x2 = 0.16	0.532	33.05
303.15 K, x2 = 0.26	0.618	26.04
303.15 K, x2 = 0.32	0.666	23.45
303.15 K, x2 = 0.37	0.717	21.15
303.15 K, x2 = 0.47	0.828	16.91
303.15 K, x2 = 0.53	0.886	14.85
303.15 K, x2 = 0.58	0.944	12.83
303.15 K, x2 = 0.68	1.05	9.03
303.15 K, x2 = 0.79	1.11	5.9
303.15 K, x2 = 0.89	1.02	3.7
303.15 K, x2 = 0.95	0.826	2.93
303.15 K, x2 = 0.97	0.652	–
308.15 K, x2 = 0	0.505	44.38
308.15 K, x2 = 0.05	0.54	36.9
308.15 K, x2 = 0.11	0.578	31.36
308.15 K, x2 = 0.16	0.619	27.23
308.15 K, x2 = 0.21	0.663	24.11
308.15 K, x2 = 0.26	0.711	21.64
308.15 K, x2 = 0.32	0.762	19.59
308.15 K, x2 = 0.42	0.872	16.04
308.15 K, x2 = 0.47	0.931	14.35
308.15 K, x2 = 0.53	0.992	12.68
308.15 K, x2 = 0.58	1.05	11.01
308.15 K, x2 = 0.63	1.11	9.39
308.15 K, x2 = 0.68	1.16	7.85
308.15 K, x2 = 0.74	1.2	6.44
308.15 K, x2 = 0.79	1.22	5.2
308.15 K, x2 = 0.84	1.2	4.17
308.15 K, x2 = 0.89	1.11	3.34
308.15 K, x2 = 0.95	0.892	2.68
308.15 K, x2 = 0.97	0.691	–
313.15 K, x2 = 0	0.57	35.76
313.15 K, x2 = 0.05	0.611	30.14
313.15 K, x2 = 0.11	0.654	25.92
313.15 K, x2 = 0.16	0.701	22.74
313.15 K, x2 = 0.26	0.803	18.29
313.15 K, x2 = 0.37	0.916	15.11
313.15 K, x2 = 0.42	0.975	13.68
313.15 K, x2 = 0.53	1.1	10.88
313.15 K, x2 = 0.58	1.16	9.5
313.15 K, x2 = 0.63	1.21	8.15
313.15 K, x2 = 0.68	1.26	6.87
313.15 K, x2 = 0.74	1.29	5.69
313.15 K, x2 = 0.89	1.18	3.02
313.15 K, x2 = 0.95	0.946	2.45
318.15 K, x2 = 0.11	–	21.73
318.15 K, x2 = 0.16	–	19.16
318.15 K, x2 = 0.21	–	17.18
318.15 K, x2 = 0.26	–	15.58
318.15 K, x2 = 0.32	–	14.22
318.15 K, x2 = 0.37	–	12.99
318.15 K, x2 = 0.42	–	11.81
318.15 K, x2 = 0.53	–	9.47
318.15 K, x2 = 0.58	–	8.3
318.15 K, x2 = 0.63	–	7.16
318.15 K, x2 = 0.68	–	6.06
318.15 K, x2 = 0.74	–	5.05
318.15 K, x2 = 0.79	–	4.16
318.15 K, x2 = 0.84	–	3.39
318.15 K, x2 = 0.95	–	2.26

CC1COC(=O)O1 (configuration not stated) + CCCC[N+]1(C)CCCC1.O=S(=O)([N-]S(=O)(=O)C(F)(F)F)C(F)(F)F
x1 = 1
Conditions	electrical conductivity [S/m]	viscosity [mPa·s]
263.15 K	0.001	–
268.15 K	0.001	–
273.15 K	0.001	–
278.15 K	0.001	–
283.15 K	0.001	–
288.15 K	0.001	–
298.15 K	0.002	2.52
308.15 K	0.002	2.14
318.15 K	–	1.85
